Tests used:
Type in all cases: in vivo, mouse
normal mice [1] = assay: Spontaneous motor activity in normal mice (open field test); conditions: i.p. PA-915 30 mg/kg, ketamine 20 mg/kg, fluoxetine 20 mg/kg, 30 min before vs 30 min after administration
Procedure: (1) The effects of PA-915, ketamine and the existing drug fluoxetine on normal mice were evaluated by an open field test (test to measure spontaneous locomotion in a novel environment by exploiting the properties of mice to do exploratory behavior in such a novel environment, and using a 45 cm×45 cm box of 30 cm in height).
Male C57BL/6J mice (8 to 12 weeks old) were placed in the box (illuminance: 100 lx) and allowed to freely explore the box for 60 minutes. Then, a vehicle (V: 10% DMSO solution; dissolved in saline; n=8), PA-915 (PA: 30 mg/kg; n=9), ketamine (K: 20 mg/kg; n=8) or fluoxetine (F: 20 mg/kg; n=11) was intraperitoneally administered thereto (0.1 mL/10 g). Spontaneous motor activity was measured by using the total distances traveled for 30 minutes before administration and for 30 minutes after administration as indexes. The data was indicated by mean±standard error. **P<0.01; *P<0.05 (Two-way ANOVA followed by Tukey-Kramer test).

normal mice [2] = assay: Prepulse inhibition (PPI) test in normal mice; conditions: i.p. PA-915 30 mg/kg, ketamine 20 mg/kg
Procedure: A vehicle (V: 10% DMSO solution; dissolved in saline; n=13), PA-915 (PA: 30 mg/kg; n=10) or ketamine (K: 20 mg/kg; n=15) was intraperitoneally administered (0.1 mL/10 g) to male C57BL/6J mice (8 to 12 weeks old), which were then acclimatized to 65 dB background noise for 5 minutes in the apparatus. The mice were randomly stimulated 20 times with 50-msec 120 dB startle sound or with 20-msec 73 dB, 77 dB, and 81 dB prepulse sounds and 50-msec 120 dB startle sound 50 msec after each prepulse sound for 30 minutes from the completion of acclimatization. In this respect, the ratio of PPI was calculated according to [(Average startle amplitude without prepulse)−(Average startle amplitude of trial with prepulse)]/(Average startle amplitude without prepulse)×100. The data was indicated by mean±standard error. **P<0.01; *P<0.05 (One-way ANOVA followed by Tukey-Kramer test).

[3] = system: plasma corticosterone level; assay: Repeated corticosterone administration, plasma corticosterone level (ELISA); conditions: male mice, corticosterone 20 mg/kg s.c. 21 days; single i.p. PA-915 30 mg/kg, ketamine 20 mg/kg; next day
Procedure: A vehicle (0.5% carboxymethylcellulose solution) or corticosterone (20 mg/kg) was subcutaneously administered (0.1 mL/10 g) to male C57BL/6J mice (7 weeks old) for 21 days. A vehicle (10% DMSO solution; dissolved in saline; n=4), PA-915 (30 mg/kg; n=4) or ketamine (20 mg/kg; n=4) was intraperitoneally administered thereto (0.1 mL/10 g) 3 hours after administration on the 21st day. On the next day, the mice were subjected to the forced swim test and then decapitated, and systemic circulating blood was collected. The plasma corticosterone level was measured using Corticosterone ELISA kit from Cayman Chemical Company. Mice given the vehicle by repeated administration without repeated corticosterone administration were used as a control (n=4). The data was indicated by mean±standard error. **P<0.01 (One-way ANOVA followed by Tukey-Kramer test).

CNC1(c2ccccc2Cl)CCCCC1=O (stereo not drawn) [ketamine]
change in spontaneous motor activity (total distance traveled) (normal mice [1]): increase in spontaneous motor activity | influence on prepulse inhibition (PPI ratio) (normal mice [2]): caused prepulse inhibition deficits | effect on plasma corticosterone level [3]: decreased the plasma corticosterone level

Source: patent publication US12458643B2, “Antidepressant/anxiolytic drug in which PAC1 receptor antagonist is used” (KAGOSHIMA UNIVERSITY, priority 2020, dated 2025)
